Experimental data reported in paper PMC5325331, “A steroid like phytochemical Antcin M is an anti-aging reagent that eliminates hyperglycemia-accelerated premature senescence in dermal fibroblasts by direct activation of Nrf2 and SIRT-1” (Oncotarget, 2016).

How the values were obtained:
[1] = tested on: C. elegans wild type Bristol N2; assay: Life span assay in C. elegans; type: in vivo, Caenorhabditis elegans
Description: The wild type Bristol N2 strain was used in this study. C. elegans and Escherichia coli OP50 strain were obtained from the Caenorhabditis Genetic Center, University of Minnesota (Minneapolis-St. Paul, MN). Worms were maintained at 20°C on nematode growth medium (NGM). Hatched worms (L1-stage larvae) were transferred to fresh agar plates and cultured with E. coli OP50 as a food source until they reached the L4 larvae stage. Synchronization of worm cultures was achieved by hypochlorite treatment of gravid hermaphrodites. […] Control worms were treated with 0.1% DMSO. All worms were kept 20°C to develop adulthood. Surviving and dead animals were counted daily (starting from the first day of adulthood) until all worms had died. […] Worms suffering from internal hatch (a defect in egg-laying) and those that crawled off the NGM plate were not included in the life-span assay. During the reproductive period, adult worms were transferred to fresh NGM plates every and then every other day thereafter. Life span assay result was obtained from three independent assays.

[2] = tested on: HNDFs; assay: SA-β-gal senescence assay in HG-induced HNDFs; type: cell-based, human
Description: (§1) Human normal dermal fibroblasts (HNDFs, CCD966SK) and human umbilical vein endothelial cells (HUVECs) were obtained from the Bioresource Collection and Research Center (BCRC), Hsinchu, Taiwan. HNDFs were grown in MEM containing 10% FBS, 2 mM L-glutamine, 100 U/mL penicillin and streptomycin at 37°C in a fully humidified atmosphere of 5% CO2. Likewise, HUVECs were grown in M-199 medium supplemented with ECGS, heparin, 10% FBS and 100 U/mL penicillin and streptomycin at 37°C in a fully humidified atmosphere of 5% CO2. High-glucose treatment was performed by treating cells with 15 or 30 mM D-glucose (HG) for 24-72 h.
(§2) Senescence-associated β-galactosidase (SA-β-gal) activity was determined in formaldehyde-fixed histochemical staining kit according to the manufacturer's instructions (Cell Signaling Technology, Danvers, […]). Briefly, cells were grown in 6-well plates at a density of 5 × 10^4 cells/well, and incubated with HG or test samples for 48 h (HUVECs) or 72 h (HNDFs). After incubation, cells were stained with SA-β-gal staining solution at pH 6.0 overnight and then the development of blue staining was observed and photographed under a bright-field microscope (Motic Electric Group, Xiamen, P.R. China).

[3] = tested on: HUVECs; assay: SA-β-gal senescence assay in HG-treated HUVECs; type: cell-based, human; conditions: ANM 10 μM with HG (30 mM) for 48 h; HG alone 6.38-fold
Description: as §2

[4] = tested on: HUVECs; assay: Cell viability of HUVECs (MTT assay); type: cell-based, human; conditions: ANM 10 μM or RES 5 μM for 48 h
Description: Human normal dermal fibroblasts ([…]) and human umbilical vein endothelial cells (HUVECs) were obtained from the Bioresource Collection and Research Center (BCRC), Hsinchu, Taiwan. […] Likewise, HUVECs were grown in M-199 medium supplemented with ECGS, heparin, 10% FBS and 100 U/mL penicillin and streptomycin at 37°C in a fully humidified atmosphere of 5% CO2. High-glucose treatment was performed by treating cells with 15 or 30 mM D-glucose (HG) for 24-72 h. […] Cell viability was assessed by MTT colorimetric assay. […] After treatment with HG (15 and 30 mM) in the presence or absence of samples for 24-72 h, culture media was withdrawn and incubated with MTT (1 mg/mL) in fresh medium for 2 h. The MTT formazan crystals were dissolved in 400 μL of DMSO and the samples were measured at 570 nm […] using an ELISA microplate reader (Bio-Tek Instruments, Winooski, VT). The percentage of cell viability (%) was calculated as (A570 of treated cells/A570 of untreated cells) × 100.

[5] = tested on: HNDFs; assay: Cytotoxicity of antcins against HNDFs (MTT assay); type: cell-based, human; conditions: Homo sapiens, 72 h, read-out: IC50 (50% inhibitory concentration) against HNDFs
Description: Figure 2 Effects of antcins on HG-induced senescence in HNDFs A. Type of antcins subjected to screen for potential anti-aging agents for skin aging. Names and chemical structures of the antcins are shown in the left and centrer column, respectively. The cytotoxic effects of antcins against HNDFs. Briefly, HNDFs were incubated with increasing concentrations (1, 5, 10 and 20 μM) of antcins including antcin A, antcin B, antcin C, antcin H, anticn K and antcin M for 72 h and the cell viability was determined by MTT assay. The 50% inhibitory concentrations (IC50) of each compound against HNDFs are shown in right column. B. Cells were incubated with antcin A (10 μM), antcin H (10 μM) and antcin M (10 μM) in the presence of HG (30 mM) for 72 h. Cellular senescence was determined by SA-β-gal activity. […] C. HNDFs were incubated with antcin A (10 μM), antcin H (10 μM) and antcin M (10 μM) in the presence of HG (30 mM) for 72 h. Senescence-associated marker proteins such as p16^INK4A, p21^CIP1 and SMP30 were determined by western blot analysis. D. To determine the effect of antcins on cell proliferation efficacy, HNDFs 5 × 10^4 cells/well in 6-well plates were incubated with antcins in the presence of HG (30 mM) for 72 h. Number of viable cells were quantified by the tryphan blue exclusion method. Results are expressed as mean ± S.E.M of three indipendent expriments. Statistical significance was et at ^ФP < 0.05 compared to NG vs HG and *P < 0.05 compared to HG vs. samples.
as §1
Cell viability was assessed by MTT colorimetric assay. Briefly, HNDFs (2 × 10^4 cells/well) or HUVECs (5 × 10^4 cells/well) were seeded in a 24-well culture plate. After treatment with HG (15 and 30 mM) in the presence or absence of samples for 24-72 h, culture media was withdrawn and incubated with MTT (1 mg/mL) in fresh medium for 2 h. The MTT formazan crystals were dissolved in 400 μL of DMSO and the samples were measured at 570 nm […] using an ELISA microplate reader (Bio-Tek Instruments, Winooski, VT). The percentage of cell viability (%) was calculated as (A570 of treated cells/A570 of untreated cells) × 100.

[6] = tested on: HNDFs; assay: Flow cytometric detection of intracellular ROS (DCFH2-DA) in HNDFs; type: cell-based, human
Description: Intracellular ROS accumulation was determined using the dye DCFH2-DA following a procedure described earlier. Briefly, HNDFs (1 × 10^5 cells/well) were seeded in 6-well plates and incubated with HG in the presence or absence of test samples for 24 h. At the end of the incubation, the culture supernatant was removed and cells were washed twice with PBS. DCFH2-DA (10 μM) was mixed with 500 μL MEM and added to the culture plate. After incubation for 30 minutes, cells were collected by trypsin and the fluorescence shift was quantified using a flow cytometer (Beckman Coulter). Data were acquired and analyzed using CXP software (Beckman Coulter).

C=C(CCC(C)C1CCC2C3=C(C(=O)C(O)C21C)C1(C)CCC(O)C(C)C1CC3)C(C)C(=O)O (stereo not drawn) [ANM, antcin M]
life span of C. elegans under normal condition ([1]; ANM 10 μM or RES 438 μM alone, compared to the control): significantly (P < 0.026) prolonged the life span | life span of C. elegans under high glucose ([1]; high glucose (50 mM) with ANM (100 μM as printed elsewhere in the source), vs high glucose alone): significant (P < 0.0001) increase of life span | SA-β-gal positive cells ([2]; 10 μM with HG (30 mM) for 72 h, HG alone 9.59-fold (Figure 2B)): 1.51 fold | SA-β-gal positive cells ([2]; ANM 10 μM with HG (30 mM) for 72 h, HG alone 5.72-fold (Figure 4B)): 1.89 fold | SA-β-gal staining (endothelial senescence) [3]: 1.36 fold | cell viability of HUVECs, treatment alone [4]: did not affect cell viability | IC50 [5]: > 50 µM | HG-induced ROS generation ([6]; ANM 10 μM or NAC 100 μM with HG (30 mM) for 24 h, HG alone 426.2%): 200.8% | ROS generation, treatment alone ([6]; ANM 10 μM or NAC 100 μM without HG, 24 h): did not significantly increase ROS generation
